These results are taken from patent US20040115160A1, “Quaternary ammonium esters for disinfection and preservation” (priority 2002, published 2004).

Data set [1] has as its system Pseudomonas aeruginosa (ATCC 9027). Nature of the data set: Stand-alone biocidal test without organic soil. The settings on record: 25 ppm in BBS, without organic soil. The format is cell-based. The method, then: (§1) A test was conducted to study the microbiocidal efficacy of a solution containing a quaternary ammonium ester of the present invention employing borate buffered saline (BBS). The antimicrobial efficacy of each of the various compositions for the chemical disinfection of contact lenses was evaluated. Microbial challenge inoculums were prepared using Pseudomonas aeruginosa (ATCC 9027), Staphylococcus aureus (ATCC 6538), Serratia marcescens (ATCC 13880), Candida albicans (ATCC 10231) and Fusarium solani (ATCC 36031). The test organisms were cultured on appropriate agar and the cultures were harvested using sterile DPBST (Dulbecco's Phosphate Buffered Saline plus 0.05 percent weight/volume polysorbate 80) or a suitable diluent and transferred to a suitable vessel. Spore suspensions were filtered through sterile glass wool to remove hyphal fragments. Serratia marcescens, as appropriate, was filtered through a 1.2 mμ filter to clarify the suspension. After harvesting, the suspension was centrifuged at no more than 5000×g for a maximum of 30 minutes at 20 to 25° C. The supernatant was poured off and resuspended in DPBST or other suitable diluent. The suspension was centrifuged a second time, and resuspended in DPBST or other suitable diluent. All challenge bacterial and fungal cell suspensions were adjusted with DPBST or other suitable diluent to 1×10^7 to 1×10^8 cfu/ml. The appropriate cell concentration may be estimated by measuring the turbidity of the suspension, for example, using a spectrophotometer at a preselected wavelength, for example 490 nm. One tube was prepared containing a minimum of 10 ml of test solution per challenge organism. Each tube of the solution to be tested was inoculated with a suspension of the test organism sufficient to provide a final count of 1×10^5 to 1×10^6 cfu/ml, the volume of the inoculum not exceeding 1 percent of the sample volume. Dispersion of the inoculum was ensured by vortexing the sample for at least 15 seconds. The inoculated product was stored at 10 to 25° C. Aliquots in the amount of 1.0 ml were taken of the inoculated product for determination of viable counts after certain time periods of disinfection. The time points for the bacteria were, for example, 1, 2, 3 and 4 hours when the proposed regimen soaking time was four hours. Yeast and mold were tested at an additional timepoint of 16 hours (4 times the regimen time). The suspension was mixed well by vortexing vigorously for at least 5 seconds. The 1.0 ml aliquots removed at the specified time intervals were subjected to a suitable series of decimal dilutions in validated neutralizing media. The suspensions were mixed vigorously and incubated for a suitable period of time to allow for neutralization of the microbial agent at room temperature. The viable count of organisms was determined in appropriate dilutions by preparation of triplicate plates of trypticase soy (TSA) agar for bacteria and Sabouraud dextrose agar (SDA) for mold and yeast. The bacterial recovery plates were incubated at 30 to 35° C. for two to four days. The yeast was incubated at 20 to 30° C. for two to four days and mold recovery plates were incubated at 20 to 25° C. for three to seven days. The average number of colony forming units was determined on countable plates. Countable plates refer to 30 to 300 cfu/plates for bacteria and yeast, and 8 to 80 cfu/plate for mold except when colonies are observed only for the 10^0 or 10^−1 dilution plates. The microbial reduction was then calculated at the specified time points. […] Following inoculation in a validated neutralizing broth and incubation for an appropriate period of time, the inoculum control must be between 1.0×10^5 to 1.0×10^6 cfu/ml. […]

Data set [2] has as its system Serratia marcescens (ATCC 13880). Nature of the data set: Stand-alone biocidal test without organic soil. Type of data set: cell-based. The settings on record: 25 ppm in BBS, without organic soil. The method, then:
as §1

For data set [3], the system named is Staphylococcus aureus (ATCC 6538). Nature of the data set: Stand-alone biocidal test without organic soil. The format is cell-based. The settings on record: 25 ppm in BBS, without organic soil. On the procedure:
as §1

Data set [4] relates to Candida albicans (ATCC 10231). Nature of the data set: Stand-alone biocidal test without organic soil. Type of data set: cell-based. The note with it: Candida albicans, ATCC10231, 25 ppm in BBS, without organic soil, read-out: Stand-alone biocidal result (microbial log reduction) C. albicans. On the procedure: as §1
Data set [5] concerns Fusarium solani (ATCC 36031). Kind of data set: Stand-alone biocidal test without organic soil. The format is cell-based. The note with it: Fusarium solani, ATCC36031, 25 ppm in BBS, without organic soil, read-out: Stand-alone biocidal result (microbial log reduction) F. solani. The method, then: as §1

Each structure is given as a SMILES string. Where a name gives a salt, the structure may show the parent alone. Read-outs that look alike come from different tables or passages of the source.

`CCCCCCCCCCCCCC(=O)OCCC[N+](C)(C)CCCCCCCCCC` (as salt: iodide) [Compound 13, N-myristoyloxypropyl-N-decyl-N,N-dimethylammonium iodide] registered a melting point of 103 to 104 °C.
Turning to `CCCCCCCC(=O)OCCC[N+](C)(C)C` (as salt: iodide) [Compound 2, N-capryloyloxypropyl-N,N,N-trimethylammonium iodide], the melting point fell in the range of 107 to 109 °C.
The same measure, in the same setting: the value for `CCCCCCCCCCCCCC(=O)OCCC[N+](C)(C)CCCCC` (as salt: iodide) [Compound 11, N-myristoyloxypropyl-N,N-dimethyl-N-pentylammonium iodide] was 90 to 91 °C; that for `CCCCCCCCCCCCCC(=O)OCCC[N+](C)(C)C` (as salt: iodide) [Compound 5, N-myristoyloxypropyl-N,N,N-trimethylammonium iodide] was 118 to 120 °C; that for `CCCCCCCCCCCCCC(=O)OCCC[N+](C)(C)CCCC` (as salt: iodide) [Compound 10, N-myristoyloxypropyl-N-butyl-N,N-dimethylammonium iodide] was 87 to 89 °C.
On to `CCCCCCCC(=O)OCCC[N+](C)(C)C` [Compound 2, N-capryloyloxypropyl-N,N,N-trimethylammonium iodide], for which the “Stand-alone biocidal result (microbial log reduction) P. aeruginosa” value in data set [1] (1 hr.) and in data set [1] (4 hr.) was “TNTC” throughout. Further, the “Stand-alone biocidal result (microbial log reduction) S. marcescens” value in data set [2] (1 hr.) and in data set [2] (4 hr.) was “TNTC” each time. In addition, the “Stand-alone biocidal result (microbial log reduction) S. aureus” value in data set [3] (1 hr.) and in data set [3] (4 hr.) was “TNTC” throughout. Further, the log reduction at 25 ppm in data set [4] (1 hr.) is 0; in data set [4] (4 hr.), 0.2; in data set [5] (1 hr.) it was 0.1; in data set [5] (4 hr.), 0.6.
For `CCCCCCCCCCCCCC(=O)OCCC[N+](C)(C)Cc1ccccc1` (as salt: chloride) [Compound 1, N-myristoyloxypropyl-N-benzyl-N,N-dimethylammonium chloride], the melting point was 93 to 95 °C.
Consider `CCCCCCCCCCCCCC(=O)OCCOCC[N+](C)(C)C` [Compound 15, N-myristoyloxyethoxyethyl-N,N,N-trimethylammonium iodide], for which the “Stand-alone biocidal result (microbial log reduction) P. aeruginosa” value in data set [1] (1 hr.) and in data set [1] (4 hr.) was above 4.7 each time. Further, the “Stand-alone biocidal result (microbial log reduction) S. marcescens” value in data set [2] (1 hr.) is 3.8; in data set [2] (4 hr.), above 4.8. The “Stand-alone biocidal result (microbial log reduction) S. aureus” value in data set [3] (1 hr.) and in data set [3] (4 hr.) was above 4.8 throughout. Moreover, the log reduction at 25 ppm in data set [4] (1 hr.) was 3.6; in data set [4] (4 hr.), 4.6; in data set [5] (1 hr.), 3.8; in data set [5] (4 hr.) it was 4.1.
For the compound `CCCCCCCCCCCCCC(=O)OCCC[N+](C)(C)CCCCCCCCCC` [Compound 13, N-myristoyloxypropyl-N-decyl-N,N-dimethylammonium iodide], the figures for the “Stand-alone biocidal result (microbial log reduction) P. aeruginosa” value in data set [1] (1 hr.) and in data set [1] (4 hr.) were 3.5 and 4.7, respectively. Also, the “Stand-alone biocidal result (microbial log reduction) S. marcescens” value in data set [2] (1 hr.) is listed as “TNTC”; in data set [2] (4 hr.), 2.9. The “Stand-alone biocidal result (microbial log reduction) S. aureus” value in data set [3] (1 hr.) stood at 3.8; in data set [3] (4 hr.), 4.8. For the same compound, the log reduction at 25 ppm in data set [4] (1 hr.) turned out to be 0.5; in data set [4] (4 hr.), 1.2; in data set [5] (1 hr.), 1.5; in data set [5] (4 hr.), 3.1.
For `CCCCCCCCCCCCCC(=O)OCCC[N+](C)(C)CC` (as salt: iodide) [Compound 8, N-myristoyloxypropyl-N,N-dimethyl-N-ethylammonium iodide], the melting point lay within 60 to 62 °C.
Still for that read-out and setting: the value for `CCCCCCCCCCCCCC(=O)OCCC[N+](C)(C)CCCCCC` (as salt: iodide) [Compound 12, N-myristoyloxypropyl-N,N-dimethyl-N-hexylammonium iodide] was 78 to 79 °C.
On the same count and under the same terms, under `CCCCCCCCCCCCCC(=O)OCCC[N+](C)(C)CCC` (as salt: iodide) [Compound 9, N-myristoyloxypropyl-N,N-dimethyl-N-propylammonium iodide] stands 80 to 82 °C; under `CCCCCCCCCCCCCC(=O)OCCOCC[N+](C)(C)C` (as salt: iodide) [Compound 15, N-myristoyloxyethoxyethyl-N,N,N-trimethylammonium iodide], 92 to 94 °C.
As for `CCCCCCCCCCCCCC(=O)OCCC[N+](C)(C)CCCC` [Compound 10, N-myristoyloxypropyl-N-butyl-N,N-dimethylammonium iodide], the “Stand-alone biocidal result (microbial log reduction) P. aeruginosa” value in data set [1] (1 hr.) is listed as above 4.7; in data set [1] (4 hr.), 4.7. Also, the “Stand-alone biocidal result (microbial log reduction) S. marcescens” value is on record as 3.8 in data set [2] (1 hr.) and above 4.8 in data set [2] (4 hr.). The “Stand-alone biocidal result (microbial log reduction) S. aureus” value in data set [3] (1 hr.) and in data set [3] (4 hr.) was above 4.8 throughout. The log reduction at 25 ppm in data set [4] (1 hr.) was 4.5; in data set [4] (4 hr.), above 4.8; in data set [5] (1 hr.), above 4.5; in data set [5] (4 hr.) it was above 4.5.
`CCCCCCCCCCCCCCCCCC(=O)OCCC[N+](C)(C)C` (as salt: iodide) [Compound 7, N-stearoyloxypropyl-N,N,N-trimethylammonium iodide] yielded a melting point of 116 to 118 °C.
`CCCCCCCCCCCCCCCC(=O)OCCC[N+](C)(C)C` (as salt: iodide) [Compound 6, N-palmitoyloxypropyl-N,N,N-trimethylammonium iodide] displayed a melting point of 116 to 118 °C.
`CCCCCCCCCCCC(=O)OCCC[N+](C)(C)C` (as salt: iodide) [Compound 4, N-lauroyloxypropyl-N,N,N-trimethylammonium iodide] gave a melting point of 121 to 124 °C.

What is called melting point is the temperature, or range, at which the solid turns liquid.
